Experimental data published in US11643439B2, “Multi-target compound with anticoagulation and antiplatelet activity, preparation method therefor, and use thereof” (SHAANXI MICOT TECHNOLOGY LIMITED COMPANY, priority 2015, dated 2023).

How the values were obtained:
[1] = tested on: FeCl3-induced inferior vena cava thrombosis; assay: FeCl3-induced inferior vena cava thrombosis in rats; format: in vivo, rat
Description: (§1) 160 Rats were randomly divided into groups, 5 to 10 rats per group.
(§2) According to the body weight in kilograms of the rats, the first dose of a drug was dissolved in 2 mL of physiological saline for single bolus injection. The maintaining dose of drug was dissolved in 9 ml of physiological saline, and placed in a double-channel micro-injection pump, which was dripped off within 90 minutes at a dripping speed of 0.1 ml/min. The sham operation group was administered with the same volume of physiological saline.
(§3) The rats were fasted with free access to water overnight before the experiment.
15 minutes later, the filter paper was removed. And then, after observation for 45 minutes, the blood vessels and local tissues were rinsed with warm physiological saline, and the covered blood vessels were cut off. The thrombus which attached to the blood vessel walls was peeled off to be weighed on a tin foil for its wet weight, and then weighed overnight at room temperature for its dry weight. The administration was continued until the completion of the experiment.
After the experiment was completed, the segment of the blood vessels in which there had been thrombus formation was cut off, weighed for the wet weight, and then weighed overnight at room temperature for the dry weight of the thrombus. Thrombosis inhibitory rate was calculated.

[2] = tested on: blood coagulation function; assay: APTT in rats, intravenous maintenance administration; format: in vivo, rat
Description: as §1, §2, §3
(§4) The blood samples were taken before administration, administration for 60 minutes, and before termination of administration, respectively, to determine their activated partial thromboplastin time (APTT) and prothrombin time (PT). The blood samples were centrifuged at 3510 rpm for 8 minutes to obtain platelet poor plasma (PPP). Reagent reconstruction and preservation were performed according to the operation requirements of the kit. Immediately after each blood sample was placed into a test cup and then PT and APTT reagents were added, the test was started. After the test was completed, results were recorded.
(§5) 5.1 Determination of blood coagulation function: The blood samples were taken 0 min before administration, administration for 60 minutes, and termination of administration, respectively, and then determined using a platelet-aggregation coagulation factor analyzer for the blood coagulation functions (PT. APTT) and ACT.

[3] = tested on: blood coagulation function; assay: PT in rats, intravenous maintenance administration; format: in vivo, rat
Description: as §1, §2, §3, §4, §5

[4] = tested on: blood coagulation function; assay: APTT in rabbits, single intravenous administration; format: in vivo, rabbit; details: single iv 200 (U/kg)
Description: 1. Grouping and administration: 48 Rabbits were randomly divided into 6 groups, 8 rabbits per group. 1) Sham operation group (NS): Intravenous injection of the same volume of physiological saline; 2) positive control bivalirudin group (6 mg/kg); 3) positive control enoxaparin group (200 U/kg); 4) Low dose group of polypeptide 2 (3.0 mg/kg); 5) Medium dose group of polypeptide 2 (6.0 mg/kg); 6) High dose group of polypeptide 2 (12.0 mg/kg). Polypeptide 2 was administered by single intravenous administration. According to the body weight in kilograms of the rabbits, the sample was dissolved in 2 mL of physiological saline for single bolus injection. The sham operation group was administered with the same volume of physiological saline.
3.2 Determination of blood coagulation function: Blood samples were taken and the blood function (PT, TT, APTT) was determined at 0 min before administration, at points of 5 min and 15 min after administration, using a platelet-aggregation coagulation factor analyzer. Blood samples were centrifuged at 3510 rpm for 8 min to obtain platelet poor plasma (PPP). Reagent reconstruction and preservation were performed according to the operation requirements of the kit. Immediately after each blood sample was placed into a test cup and then added with PT. TT and APTT reagents, the test was started. After the test was completed, results were recorded.

[5] = tested on: thrombin-induced pulmonary embolism; assay: Thrombin-induced pulmonary embolism in mice; format: in vivo, mouse; details: thrombin 1500 u/kg
Description: Mice were randomly divided into 7 groups with 10 mice per group, in which group 1 was physiological saline group, group 2 was model control group, group 3 was positive control group of enoxaparin 0.5 mg/kg, group 4 was positive control group of bivalirudin 8 mg/kg, group 5 was low dose group of polypeptide 2 at 2.5 mg/kg, group 6 was medium dose group of polypeptide 2 at 5.0 mg/kg, and group 7 was high dose group of polypeptide 2 at 10.0 mg/kg. Except that physiological saline group and model control group were subjected to tail intravenous injection of 200 μl physiological saline, the other groups were given according to the doses, respectively. After 2 min, the mice in physiological saline group were administered with 100 μl physiological saline through tail intravenous injection and the other groups were each administered with 100 μl thrombin based on 1500 u/kg (80% to 90% of the lethal dose) through tail intravenous injection. The mice were observed after the administration for their death within 15 min.
(1) Recording mortality rate: the death status of mice with acute pulmonary embolism mice within 15 min was recorded and the survival time was recorded, to calculate the mortality rate;
(2) Determining lung coefficient: immediately after death, the bronchial and adipose tissues were dissected away from the lung tissue, and the lung tissue was washed with distilled water, and weighed for the lung weight after soaking up the water on the surface of the lung with a filter paper. The lung was taken out and weighed, to calculate the lung coefficient. Lung coefficient=Lung weight/Body weight×100%;
The lung was immediately dissected and taken out and weighed to determine the lung coefficient.

Enoxaparin
Inferior vena cava thrombosis Inhibition percentage ([1]; iv 30 + 45 u (U/kg+U/kg/h)): 34.93%
Inferior vena cava thrombosis Thrombus weight ([1]; iv 30 + 45 u (U/kg+U/kg/h)): 14.67 ± 8.44 mg
Inferior vena cava thrombosis Inhibition percentage ([1]; iv 30 + 120 u (U/kg+U/kg/h)): 49.07%
Inferior vena cava thrombosis Thrombus weight ([1]; iv 30 + 120 u (U/kg+U/kg/h)): 11.48 ± 2.81 mg
Inferior vena cava thrombosis Inhibition percentage ([1]; iv 60 + 60 u (U/kg+U/kg/h)): 50.42%
Inferior vena cava thrombosis Thrombus weight ([1]; iv 60 + 60 u (U/kg+U/kg/h)): 11.18 ± 4.47 mg
Inferior vena cava thrombosis Inhibition percentage ([1]; iv 60 + 240 u (U/kg+U/kg/h)): 86.25%
Inferior vena cava thrombosis Thrombus weight ([1]; iv 60 + 240 u (U/kg+U/kg/h)): 6.59 ± 2.54 mg
Inferior vena cava thrombosis Inhibition percentage ([1]; iv 90 + 120 u (U/kg+U/kg/h)): 64.06%
Inferior vena cava thrombosis Thrombus weight ([1]; iv 90 + 120 u (U/kg+U/kg/h)): 8.10 ± 3.67 mg
APTT Before administration ([2]; iv 30 + 45 u (U/kg+U/kg/h)): 28.99 ± 7.00
APTT Fold of change ([2]; iv 30 + 45 u (U/kg+U/kg/h)): 1.78 ± 0.61
APTT administration for 60 minutes ([2]; iv 30 + 45 u (U/kg+U/kg/h)): 52.28 ± 22.51
APTT Before administration ([2]; iv 30 + 120 u (U/kg+U/kg/h)): 23.66 ± 5.88
APTT Fold of change ([2]; iv 30 + 120 u (U/kg+U/kg/h)): 4.65 ± 1.72
APTT administration for 60 minutes ([2]; iv 30 + 120 u (U/kg+U/kg/h)): 117.55 ± 78.85
APTT Before administration ([2]; iv 60 + 60 u (U/kg+U/kg/h)): 23.45 ± 4.70
APTT Fold of change ([2]; iv 60 + 60 u (U/kg+U/kg/h)): 2.66 ± 0.36
APTT administration for 60 minutes ([2]; iv 60 + 60 u (U/kg+U/kg/h)): 61.81 ± 13.19
APTT Before administration ([2]; iv 60 + 240 u (U/kg+U/kg/h)): 26.79 ± 4.74
APTT Fold of change ([2]; iv 60 + 240 u (U/kg+U/kg/h)): 10.69 ± 7.14
APTT administration for 60 minutes ([2]; iv 60 + 240 u (U/kg+U/kg/h)): 270.43 ± 166.43
APTT Before administration ([2]; iv 90 + 120 u (U/kg+U/kg/h)): 19.04 ± 5.26
APTT Fold of change ([2]; iv 90 + 120 u (U/kg+U/kg/h)): 16.34 ± 12.97
APTT administration for 60 minutes ([2]; iv 90 + 120 u (U/kg+U/kg/h)): 270.85 ± 148.90
PT Before administration ([3]; iv 30 + 45 u (U/kg+U/kg/h)): 10.23 ± 1.19
PT Fold of change ([3]; iv 30 + 45 u (U/kg+U/kg/h)): 1.24 ± 0.14
PT administration for 60 minutes ([3]; iv 30 + 45 u (U/kg+U/kg/h)): 12.70 ± 2.49
PT Before administration ([3]; iv 30 + 120 u (U/kg+U/kg/h)): 9.93 ± 1.77
PT Fold of change ([3]; iv 30 + 120 u (U/kg+U/kg/h)): 1.67 ± 0.42
PT administration for 60 minutes ([3]; iv 30 + 120 u (U/kg+U/kg/h)): 16.17 ± 1.86
PT Before administration ([3]; iv 60 + 60 u (U/kg+U/kg/h)): 9.53 ± 1.96
PT Fold of change ([3]; iv 60 + 60 u (U/kg+U/kg/h)): 4.10 ± 5.56
PT administration for 60 minutes ([3]; iv 60 + 60 u (U/kg+U/kg/h)): 31.39 ± 35.50
PT Before administration ([3]; iv 60 + 240 u (U/kg+U/kg/h)): 10.28 ± 0.98
PT Fold of change ([3]; iv 60 + 240 u (U/kg+U/kg/h)): 1.78 ± 0.30
PT administration for 60 minutes ([3]; iv 60 + 240 u (U/kg+U/kg/h)): 18.21 ± 2.70
PT Before administration ([3]; iv 90 + 120 u (U/kg+U/kg/h)): 9.63 ± 1.58
PT Fold of change ([3]; iv 90 + 120 u (U/kg+U/kg/h)): 1.57 ± 0.21
PT administration for 60 minutes ([3]; iv 90 + 120 u (U/kg+U/kg/h)): 14.88 ± 1.67
APTT fold of prolongation ([4]; Administration 5 min): 2.2 ± 0.5
APTT fold of prolongation ([4]; Administration 15 min): 1.8 ± 0.3
APTT ([4]; Administration for 5 min): 48.7 ± 3.9 s
APTT ([4]; Administration for 15 min): 40.9 ± 2.9 s
APTT ([4]; Before administration): 22.5 ± 1.1 s
Mortality rate ([5]; tail iv 0.5 mg/kg, within 15 min): 10%
Lung coefficient ([5]; tail iv 250 IU/kg): 1.02 ± 0.33 g/100 g
